This is an account of results in patent US20240299317A1, “Fenfluramine for Treatment of Conditions Associated with Spreading Depolarization” (ZOGENIX INTERNATIONAL LIMITED, priority 2021, published 2024).

Each structure is given as a SMILES string.

Data set [1] deals with spreading depolarization in mouse brain slices. Put plainly: KCl-induced spreading depolarization threshold in mouse brain slices. The settings on record: for KCl concentration necessary to initiate spreading depolarization (SD threshold): test compound alone in ACSF bath. Type of data set: cell-based. How it is done: (§1) In brain slice studies normoxic SD is induced by briefly raising [K^+]o. An ischemic version of SD, the anoxic depolarization (AD), is induced by removing O2/glucose from the aCSF for about 10 min. Intrinsic optical signals (IOSs) represent change in the way tissue scatters light. Light transmittance (LT), essentially unscattered light, is imaged using a charge-coupled device (CCD) to measure second-by-second regional DLT during periods of 1 h or more. The front of the propagating SD or AD event is imaged as an elevated LT, caused by cell swelling. A negative voltage shift, the electrophysiological signature of SD, is simultaneously recorded extracellularly. Normoxic SD is typically the cortical occurrence in migraine, while an anoxic condition is more typical of ischemic attacks and stroke.
(§2) To determine the threshold for evoked spreading depolarization in mouse brain slices, mice (C57Bl6J, P30-50) were deeply anesthetized by ketamine/xylazine mix (i.p. 85 and […], respectively), cardiac perfused with cutting solution (110 mM N-Methyl-D-glucamine, 10 mM glucose, 6 mM magnesium sulfate, 3 mM KCl, 25 mM sodium bicarbonate, 1.25 mM sodium monophosphate, 0.2 mM calcium chloride, and 0.4 mM ascorbic acid equilibrated with 95% O2/5% CO2), and decapitated. The brain was rapidly extracted, cerebellum removed, forebrain hemisected, and 300 μm thick coronal slices were cut on a vibratome.
Slices were first incubated in the cutting solution at 37 C for 10 minutes and then transferred to artificial cerebrospinal fluid (“ACSF”: 126 mM sodium chloride, 10 mM glucose, 1 mM magnesium sulfate, 3 mM KCl, 25 mM sodium bicarbonate, 1.25 mM sodium monophosphate, 2 mM calcium chloride, and 0.4 mM ascorbic acid equilibrated with 95% O2/5% CO2).
(§3) In all in vitro experiments, a pair of slices were then transferred to a recording chamber continuously superfused with ACSF at […] 33-34° C. For pharmacological analysis, slices were pre-incubated in the recording chamber with test compound for at least for 20 minutes. Slow tissue depolarizations (SD) were detected by DC potential shift or imaging of intrinsic optical signals (IOS) in the brain slice. DC potential were recorded using glass pipette electrodes containing ACSF (2-3MO). Signals were amplified with a DC amplifier (MultiClamp 700B), digitized (Digidata 1550B) and analyzed with the Clampfit program ([…]). IOS were detected by acquiring images of brain slices with a CMOS camera (Hamamatsu ORCA). Images were acquired at 0.2-0.5 Hz and analyzed with imageJ software.
First, by incrementally elevating the KCl concentration of bath ACSF every 5 minutes (initial starting concentration of 6 mM, then elevated by +1 mM at 5-minute intervals). The KCl concentration that triggered the first SD was considered as the SD threshold. In experiments using the test drug (fenfluramine), the drug was added to the solution before the KCl challenge.

For data set [2] the following is noted: cited from earlier work.
For data set [3], the target named is Sig1 receptor [Sig1R]/binding immunoglobulin protein (BiP) (Homo sapiens, UniProt Q99720). The settings on record: with PRE-084; cited from earlier work.
For data set [4], the system named is GABA spontaneous inhibitory postsynaptic currents. Put plainly: GABA spontaneous inhibitory postsynaptic currents (sIPSCs). It counts as cell-based. The settings on record: compound alone.
For data set [5], the system named is spreading depolarization in cortical slices. The data set can be described thus: Oxygen/glucose deprivation (OGD) model of spreading depolarization in brain slices. Type of data set: cell-based, mouse. The settings on record: for time to onset of spreading depolarization: treatment vs non-treatment. How it is done:
as §1
as §2, with “vibratome. […]” for “vibratome.”
as §3, with “For pharmacological analysis, slices were pre-incubated in the recording chamber with test compound for at least for 20 minutes.” left out, “software. […]” for “software.”

Another data set has as its system Sig1R. To be noted: with (+)-SKF-10,047; cited from earlier work.

Chain of Sig1 receptor [Sig1R]/binding immunoglobulin protein (BiP) (Q99720 whole entry): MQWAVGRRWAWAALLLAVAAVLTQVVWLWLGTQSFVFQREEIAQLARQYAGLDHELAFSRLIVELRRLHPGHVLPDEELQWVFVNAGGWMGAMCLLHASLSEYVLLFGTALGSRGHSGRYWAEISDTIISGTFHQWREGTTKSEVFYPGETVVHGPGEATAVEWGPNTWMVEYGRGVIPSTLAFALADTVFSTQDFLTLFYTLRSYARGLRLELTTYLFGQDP

On to `CN1CC2c3ccccc3Oc3ccc(Cl)cc3C2C1` (stereo not drawn) [asenapine], for which the “effect of multi-5-HT receptor antagonist on protective effects of fenfluramine” value in data set [1] (KCl model, asenapine added to fenfluramine) is listed as “did not affect”.
On to `COc1ccc2c(c1)[C@]13CCCC[C@@H]1[C@H](C2)N(C)CC3` [dextromethorphan], for which the “KCl concentration necessary to initiate spreading depolarization (SD threshold)” value in data set [1] (KCl model) was “raising the spreading depolarization threshold”.
In the case of `CCNC(C)Cc1cccc(C(F)(F)F)c1` (stereo not drawn) [fenfluramine, 3-trifluoromethyl-N-ethylamphetamine], the “cardiac adverse effects with chronic use” value in data set [2] (chronic use at doses of 60 to 120 mg, some patients) is reported as “cardiac valve abnormalities or pulmonary hypertension”. For the same compound, in data set [2] (low dose, Dravet Syndrome and Lennox Gastaut syndrome), the anticonvulsant/antiseizure activity entry is on record as “anticonvulsant/antiseizure activity”. In addition, the “Sig1R/BiP dissociation induced by the Sig1R agonist PRE-084” value in data set [3] is “potentiated”. Also, the “GABA spontaneous inhibitory postsynaptic currents” value in data set [4] is recorded as “increase”. In addition, the “protective effect of fenfluramine with addition of a 5-HT4 antagonist” value in data set [1] (KCl model, 5-HT4 antagonist added) is “only slightly diminished”. Moreover, the “KCl concentration necessary to initiate spreading depolarization (SD threshold)” value in data set [1] (KCl model) was “raising the KCl concentration necessary to initiate spreading depolarization”. Also, the “additivity or synergism on spreading depolarization threshold” value in data set [1] (fenfluramine with added serotonin) was “lack of additivity or synergism”. Moreover, the “fenfluramine's effects on spreading depolarization under blockade of the GABA receptors” value in data set [1] (with blockade of the GABA receptors) was “does not abolish”. The “time to onset of spreading depolarization” value is on record as “non-significant difference” in data set [5] (0% oxygen and 0 mM glucose); “significant increase in time to onset” in data set [5] (0% oxygen and 2 mM glucose). For the same compound, in data set [5] (anoxic conditions), the “effect on SD under anoxic conditions (AD)” value is on record as “positive effect”. Also, the “(+)-SKF-10,047-induced increase in the twitch contraction amplitude” value in the data set on Sig1R is “potentiated”.
Regarding `NCCc1c[nH]c2ccc(O)cc12` [serotonin, 5-hydroxytryptamine], the “GABA spontaneous inhibitory postsynaptic currents” value in data set [4] is recorded as “increase”.
